In publication PMC8887546, “Design and Synthesis of Brain Penetrant Glycopeptide Analogues of PACAP With Neuroprotective Potential for Traumatic Brain Injury and Parkinsonism” (Frontiers in drug discovery, 2022):

Key:
human PAC1 receptor = target: T1, human PAC1 receptor (Homo sapiens, UniProt P41586); assay: cAMP stimulation in CHO cells expressing PAC1; assay type: cell-based
T1 construct: expressed in transfected cells; host or cells: CHO cells (G418 selection)
T1 sequence (P41586 21-468): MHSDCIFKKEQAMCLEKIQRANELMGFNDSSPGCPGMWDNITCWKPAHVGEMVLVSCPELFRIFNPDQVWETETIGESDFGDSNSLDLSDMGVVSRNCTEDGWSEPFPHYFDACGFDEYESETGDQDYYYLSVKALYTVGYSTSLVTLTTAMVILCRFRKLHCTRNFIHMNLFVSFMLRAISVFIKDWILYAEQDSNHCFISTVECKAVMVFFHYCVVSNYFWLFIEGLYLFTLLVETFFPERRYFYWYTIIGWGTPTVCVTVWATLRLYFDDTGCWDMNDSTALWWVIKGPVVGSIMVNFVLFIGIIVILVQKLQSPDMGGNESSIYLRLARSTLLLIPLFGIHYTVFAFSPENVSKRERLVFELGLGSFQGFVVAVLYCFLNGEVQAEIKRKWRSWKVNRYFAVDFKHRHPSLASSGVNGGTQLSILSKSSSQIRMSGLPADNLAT
Method in brief: (§1)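 Serum-starved CHO cells expressing human receptors were pre-treated 20 min with 500 μM IBMX, then exposed to agonist concentration curves for 10 min in 500 μM IBMX. cAMP quantified by competition with bovine PKA and ^3H-cAMP (1 h, room temperature), scintillation read.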

human VPAC2 receptor = target: T2, human VPAC2 receptor (Homo sapiens, UniProt P41587); assay: cAMP stimulation in CHO cells expressing VPAC2; assay type: cell-based
T2 construct: expressed in transfected cells; host or cells: CHO cells (G418 selection)
T2 sequence (P41587 24-438): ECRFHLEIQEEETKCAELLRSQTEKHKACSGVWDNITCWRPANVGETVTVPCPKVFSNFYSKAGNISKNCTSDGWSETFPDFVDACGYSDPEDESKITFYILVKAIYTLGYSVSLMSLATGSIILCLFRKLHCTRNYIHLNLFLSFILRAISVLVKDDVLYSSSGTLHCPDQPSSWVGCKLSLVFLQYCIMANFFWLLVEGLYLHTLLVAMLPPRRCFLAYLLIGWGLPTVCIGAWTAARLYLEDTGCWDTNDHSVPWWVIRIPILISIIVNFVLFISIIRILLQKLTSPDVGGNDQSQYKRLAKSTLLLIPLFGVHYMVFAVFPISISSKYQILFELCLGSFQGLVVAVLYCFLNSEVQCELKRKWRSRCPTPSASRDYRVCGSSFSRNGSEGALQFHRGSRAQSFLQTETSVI
Method in brief: as §1

[1] = test system: Sprague Dawley rats, 6-OHDA lesion; assay: Unbiased stereology of TH-positive neurons in SNc (study 1); assay type: in vivo, rat; details: mild lesion (25%), 15 mg/kg i.p. 6 h prior to and 24 h post-lesion
Experimental: Rats were treated with 2LS98Lac or saline (vehicle) as outlined in the Schemes in Figures 9A,B via intraperitoneal (i.p.) injection (15 mg/kg). All animals were made hemi-parkinsonian with unilateral, striatal 6-hydroxydopamine (Sigma Aldrich, St. Louis, MO) injections. After surgery, behavioral assessments were done at 2- and 4-weeks post-surgery. 24 h after the last test animals were either euthanized and whole brains were harvested for future biochemical analysis or perfused and brains collected for immunohistochemistry and stereological assessment of tyrosine hydroxylase-positive (TH+) cells remaining in the SNc. In study 1: n = 16 each group were included, and all underwent the behavioral analysis: n = 16, and for the stereology in the SNc, n = 8 each group was used. In study 2: n = 23 each group were included. […]
Stereological probes were applied using a Zeiss Imager M2 microscope (Carl Zeiss, Jena, Germany) equipped with StereoInvestigator software (MBF Bioscience, VT, United States) according to previously published methods ([Corenblum et al., 2015]; [Anandhan et al., 2021]). Using the optical fractionator probe, cells were counted under the ×63 oil immersion objective by a blinded observer. TH+ cells were counted in sections 480 μm apart using a grid size of 170 × 100 μm and counting frame size of 75 × 75 μm. […]

[2H]C([2H])([2H])C([2H])(C([2H])([2H])[2H])[C@]([2H])(NC(=O)[C@H](C)NC(=O)[C@H](C)NC(=O)[C@H](CC(C)C)NC(=O)[C@H](Cc1ccc(O)cc1)NC(=O)[C@H](CCCCN)NC(=O)[C@H](CCCCN)NC(=O)[C@@]([2H])(NC(=O)[C@H](C)NC(=O)[C@H](CC(C)C)NC(=O)[C@H](CCC(N)=O)NC(=O)[C@H](CCCCN)NC(=O)[C@H](CCCNC(=N)N)NC(=O)[C@H](Cc1ccc(O)cc1)NC(=O)[C@H](CCCNC(=N)N)NC(=O)[C@H](CO)NC(=O)[C@H](Cc1ccc(O)cc1)NC(=O)[C@H](CO)NC(=O)[C@H](CC(=O)O)NC(=O)[C@@H](NC(=O)[C@H](Cc1ccccc1)NC(=O)[C@@H](NC(=O)CNC(=O)[C@H](CC(=O)O)NC(=O)[C@H](CO)NC(=O)[C@@H](N)Cc1c[nH]cn1)[C@@H](C)CC)[C@@H](C)O)C([2H])(C([2H])([2H])[2H])C([2H])([2H])[2H])C(=O)N[C@@H](CC(C)C)C(=O)N[C@@H](CO[C@@H]1O[C@H](CO)[C@@H](O[C@@H]2O[C@H](CO)[C@H](O)[C@H](O)[C@H]2O)[C@H](O)[C@H]1O)C(N)=O [Compound 2LS98Lac]
EC50 (human PAC1 receptor): 0.72 nM
Emax (human PAC1 receptor; CHO): 93%
EC50 (human VPAC2 receptor): 193 nM
Emax (human VPAC2 receptor; CHO): 100%
Receptor selectivity ratio VPAC2/PAC1 (human VPAC2 receptor; ratio of cAMP EC50 values): 268.06
Receptor selectivity ratio VPAC2/VPAC1 (human VPAC2 receptor; ratio of cAMP EC50 values): 428.89
TH-positive neurons in SNc, lesioned vs intact side [1]: neuronal cell death was attenuated
